The results in this text go back to patent publication US5585373A, “3-(7'-oxo-1'-aza-4'-oxabicyclo[3.2.0]-hept-3'-YL)propionic acid derivative as antitumor agent” (priority 1994, dated 1996).

≈ marks a conversion by molar mass, not a printed value.

One data set deals with KB cells. As to the kind of experiment: In Vitro KB Cell Cytotoxicity Assay. To be noted: Homo sapiens, 72 h, crystal violet staining, 3 days incubation. Format: cell-based. The procedure: Pharmacological Test 1 (In Vitro KB Cell Cytotoxicity Assay)
The cytotoxicity against KB cells was determined in accordance with a protein staining method (Grillis et al., Anal. Biochem., 159, 109 (1986)) using crystal violet. Stated more specifically, KB cells were incubated in an Eagle's minimum medium containing 10% FCS in a CO2 incubator at 37° C. The number of the cells was counted with a hemocytometer. A 100 μl quantity of the cell suspension, 3×10^4 cells/ml, was placed into each well of a 96-well plate and incubated for 24 hours. Portions (100 μl) of the drug diluted to final concentrations of 10, 1, 0.1, 0.01 and 0.001 μg/ml were added, as one dosage, to three wells, respectively. A drug-free medium was added to the wells of the control group. After incubation for 3 days, 25 μl of 25% glutaraldehyde was added and fixed for 15 minutes, followed by washing with water and drying. A 100 μl quantity of 0.05% crystal violet was added for 15 minutes of staining, followed by washing with water and drying. Extraction was performed with 100 μl of 0.05M NaH2 PO4 /EtOH (1:1 volume ratio). The absorbance was measured at a wavelength of 540 nm with a multi-scan spectrophotometer. The percent cell growth inhibition was calculated based on the absorbance by the following equation [formula]
The IC50 value (concentration of the drug for inhibiting the cell growth by 50%) was calculated through log-logit transformation of the dose-response curve and linear regression.

In another data set the test system is Sarcoma 180. In words: In Vivo Antitumor Activity against Sarcoma 180. To be noted: for Mortality in 12 days: intraperitoneal, every four days, three times, ICR mice; for Cell growth inhibition rate: ip. As to the method: Pharmacological Test 2 (In Vivo Antitumor Activity against Sarcoma 180)
5×10^6 cells of transplantable mouse tumor, Sarcoma 180, were subcutaneously transplanted in the dorsal portion of 6-week-old male ICR mice (6-7 mice in each group). The test drug was dissolved in physiological saline containing 0.25 % Tween 80 and 3.5% dimethyl sulfoxide. The solution was intraperitoneally administered to the mice every four days, starting the administration 24 hours after the transplantation, three times in total. On the 12th day after the transplantation, the tumors were removed from the bodies and weighed. The average weight of the tumors in the test group and the corresponding weight in the control group were calculated to determine the ratio of tumor growth inhibition.

For `COc1ccc(CO[C@H]([C@H](N)C(=O)O)[C@H]2CN3C(=O)C[C@@H]3O2)cc1` [Compound 32d, 3-[(3'R,5'S)-7'-oxo-1'-aza-4'-oxabicyclo[3.2.0]hept-3'-yl]-2(S)-amino-3(R)-(4"-methoxybenzyl)oxypropionic acid], in the data set on KB cells, half-maximal inhibition (IC50) was put at 0.09 µg/mL (≈ 0.268 µM).
The same measure, in the same setting: with `O=C(OCc1ccccc1)[C@@H](O)[C@@H](O)[C@H]1CN2C(=O)C[C@@H]2O1` [Compound 6, benzyl (2S,3R)-2,3-dihydroxy-3-[(3'R,5'S)-7'-oxo-1'-aza-4'-oxabicylo[3.2.0]hept-3'-yl]propionate] the figure was 0.09 µg/mL (≈ 0.293 µM); with `O=C(OC(c1ccccc1)c1ccccc1)[C@H]([C@@H](OCc1ccccc1)[C@H]1CN2C(=O)C[C@H]2O1)N(Cc1ccccc1)C(=O)OCc1ccccc1` [Compound 43, diphenylmethyl 3-[(3'R,5'R)-7'-oxo-1'-aza-4'-oxabicyclo[3.2.0]hept-3'-yl]-2(S)-(N-benzyloxycarbonyl-N-benzyl)amino-3(R)-benzyloxypropionate], 3 µg/mL (≈ 4.31 µM).
For the compound `CO[C@H]([C@H](N)C(=O)O)[C@H]1CN2C(=O)C[C@@H]2O1` [Compound 32a, 3-[(3'R,5'S)-7'-oxo-1'-aza-4'-oxabicyclo[3.2.0]hept-3'-yl]-2(S)-amino-3(R)-methoxypropionic acid], in the data set with KB cells, the IC50 – broadly, the concentration that gives 50% inhibition – was 0.03 µg/mL (≈ 0.13 µM).
Still for that read-out and setting: with `O=C(OCc1ccccc1)[C@H](O)[C@H](O)[C@H]1CN2C(=O)C[C@@H]2O1` [Compound 7, benzyl(2R,3S)-2,3-dihydroxy-3-[(3'R,5'S)-7'-oxo-1'-aza-4'-oxabicyclo[3.2.0]hept-3'-yl]propionate] the figure was 0.09 µg/mL (≈ 0.293 µM).
Take `N[C@@H](C(=O)O)[C@@H](OC(=O)c1ccccc1)[C@H]1CN2C(=O)C[C@@H]2O1` [Compound 12b, 2(R)-amino-3(R)-benzoyloxy-3-[(3'R,5'S)-7'-oxo-1'-aza-4'-oxabicyclo[3.2.0]hept-3'-yl]propionic acid]: the “Mortality in 12 days” value in the data set on Sarcoma 180 (5 mg/kg/day), in the data set with Sarcoma 180 (10 mg/kg/day) and with Sarcoma 180 (20 mg/kg/day) was 0/7 each time. Also, the entries for the “Cell growth inhibition rate” value with Sarcoma 180 (5 mg/kg), with Sarcoma 180 (10 mg/kg) and in the data set on Sarcoma 180 (20 mg/kg) were 19%, 19% and 31%, respectively. Besides, inhibition with KB cells was half-maximal at 0.3 µg/mL (≈ 0.937 µM) (IC50).
For the compound `O=C(OC(c1ccccc1)c1ccccc1)[C@H]([C@@H](OCc1ccccc1)[C@H]1CN2C(=O)C[C@@H]2O1)N(Cc1ccccc1)C(=O)OCc1ccccc1` [Compound 42, diphenylmethyl 3-[(3'R,5'S)-7'-oxo-1'-aza-4'-oxabicyclo[3.2.0]hept-3'-yl]-2(S)-(N-benzyloxycarbonyl-N-benzyl)amino-3(R)-benzyloxypropionate], in the data set on KB cells, half-maximal inhibition (IC50) required 3 µg/mL (≈ 4.31 µM).
The compound `CC(=O)O[C@@H]([C@H]1CN2C(=O)C[C@@H]2O1)[C@@H](N)C(=O)O` [Compound 12a, 3(R)-acetoxy-2(R)-amino-3-[(3'R,5'S)-7'-oxo-1'-aza-4'-oxabicyclo[3.2.0]hept-3'-yl]propionic acid] registered an IC50 in the data set on KB cells of 3 µg/mL (≈ 11.6 µM).
On the same count and under the same terms, next, `N[C@H](C(=O)O)[C@@H](OCC1CC1)[C@H]1CN2C(=O)C[C@@H]2O1` [Compound 32e, 3-[(3'R,5'S)-7'-oxo-1'-aza-4'-oxabicyclo[3.2.0]hept-3'-yl]-2(S)-amino-3(R )-cyclopropylmethyloxypropionic acid]: 0.4 µg/mL (≈ 1.48 µM).
For `N[C@H](C(=O)O)[C@@H](OCc1ccccc1)[C@H]1CN2C(=O)C[C@@H]2O1` [Compound 32b, 3-[(3'R,5'S)-7'-oxo-1'-aza-4'-oxabicyclo[3.2.0]hept-3'-yl]-2(S)-amino-3(R)-benzyloxypropionic acid], the “Mortality in 12 days” value in the data set on Sarcoma 180 (0.1 mg/kg/day) and with Sarcoma 180 (1.0 mg/kg/day) was 0/6 each time. The “Cell growth inhibition rate” value in the data set on Sarcoma 180 (0.1 mg/kg) was 12%; in the data set with Sarcoma 180 (1 mg/kg), 38%. Besides, the IC50 in the data set on KB cells came to 0.06 µg/mL (≈ 0.196 µM).
With `O=C(OCc1ccccc1)[C@@H](O)[C@H](O)[C@H]1CN2C(=O)C[C@@H]2O1` [Compound 5, benzyl(2S,3S)-2,3-dihydroxy-3-[(3'R,5'S)-7'-oxo-1'-aza-4'-oxabicyclo[3.2.0]hept-3'-yl]propionate], the IC50 in the data set with KB cells was 0.3 µg/mL (≈ 0.976 µM).
For `N[C@H](C(=O)O)[C@@H](OCc1ccc(F)cc1)[C@H]1CN2C(=O)C[C@@H]2O1` [Compound 32c, 3-[(3'R,5'S)-7'-oxo-1'-aza-4'-oxabicyclo[3.2.0]hept-3'-yl]-2(S)-amino-3(R )-(4"-fluorobenzyl)oxy-propionic acid], in the data set on KB cells, the IC50 came to 0.04 µg/mL (≈ 0.123 µM).
In the case of `O=C(OCc1ccccc1)[C@H](O)[C@@H](O)[C@H]1CN2C(=O)C[C@@H]2O1` [Compound 4, benzyl(2R,3R)-2,3-dihydroxy-3-[(3'R,5'S)-7'-oxo-1'-aza-4'-oxabicylo[3.2.0]hept-3'-yl]propionate], it took 0.07 µg/mL (≈ 0.228 µM) to reach half-maximal inhibition with KB cells (IC50). This IC50 is about 1.8-fold higher than that of the compound before.
